This is an account of results in ChEMBL document CHEMBL1129402, “Structure-based design of HIV protease inhibitors: 5,6-dihydro-4-hydroxy-2-pyrones as effective, nonpeptidic inhibitors” (J Med Chem, 1996).

Where only a bound is given, the exact number is not on record here.

A word on the IC50: it is the concentration at which inhibition is half-maximal. A word on the Ki: it is a dissociation constant, usually derived from enzyme kinetics or from competition with a known ligand. High values mean weaker binding, low ones tighter binding.

The target in the experiment is Human immunodeficiency virus type 1 protease (Human immunodeficiency virus 1, UniProt Q72874). Nature of the experiment: HIV Protease inhibitory activity.
Take `CCC(C1=C(O)OC2(CCCCC2)CC1=O)c1ccccc1` (centres undefined): half-maximal inhibition (IC50) was put at 0.78 µM.

As for `CCC(C1=C(O)OC(Cc2ccccc2)(Cc2ccccc2)CC1=O)c1ccccc1` (centres undefined), the IC50 is more than 10 µM.

In turn, `CCC(C1=C(O)OC(c2ccccc2)(C2CCCCC2)CC1=O)c1cccc(O)c1` (centres undefined) gave an inhibitory constant (Ki) of 0.61 µM. Still for that read-out and setting: with `CCC(C1=C(O)OC(CC)(c2ccccc2)CC1=O)c1ccccc1` (centres undefined) the figure was 0.16 µM. For the compound `CCC(C1=C(O)OC2(CCCCCCC2)CC1=O)c1ccccc1` (centres undefined), half-maximal inhibition (IC50) was put at 3 µM. Compound `C=CC(C1=C(O)OC2(CCCC2)CC1=O)c1ccccc1` (centres undefined) showed an IC50 of 3 µM. Take `CCCC1(CCc2ccccc2)CC(=O)C(C(CC)c2ccccc2)=C(O)O1` (centres undefined): affinity was put at a Ki of 0.035 µM.

Turning to `CCCC1(CCc2ccccc2)CC(=O)C(C(c2ccccc2)C2CCCC2)=C(O)O1` (centres undefined), the affinity, expressed as Ki, was 0.059 µM. On the same count and under the same terms, for `C=CC(C1=C(O)OC(CCC)(CCc2ccccc2)CC1=O)c1ccccc1` (centres undefined) the value was 0.016 µM.

Compound `CCC(C1=C(O)OC(CC(C)C)(CC(C)C)CC1=O)c1ccccc1` (centres undefined) had an IC50 of 75 µM. As to `CCCC1(c2ccccc2)CC(=O)C(C(CC)c2ccccc2)=C(O)O1` (centres undefined), the Ki was determined as 0.095 µM.

The compound `C=CC(C1=C(O)OC2(CCOCC2)CC1=O)c1ccccc1` (centres undefined) yielded a concentration for half-maximal inhibition (IC50) of more than 10 µM. The same measure, in the same setting: with `CCCC1(CCC)CC(=O)C(C(c2ccccc2)C(C)(C)C)=C(O)O1` (centres undefined) the figure was more than 1 µM; with `C=CC(C1=C(O)OC2(CCCCC2Cc2ccccc2)CC1=O)c1ccccc1` (centres undefined), more than 1 µM. Turning to `CCCC1(CCc2ccccc2)CC(=O)C(C(c2ccccc2)C2CC2)=C(O)O1` (centres undefined), the Ki is 0.064 µM. As to `C=CC(C1=C(O)OC2(CCCCCC2)CC1=O)c1ccccc1` (centres undefined), the IC50 is more than 1 µM. Compound `CCCC1(CCc2ccccc2)CC(=O)C(C(/C=C/c2ccccc2)c2ccccc2)=C(O)O1` (centres undefined) had a Ki of 0.05 µM. `CCCC1(CCc2ccccc2)CC(=O)C(C(CCc2ccccc2)c2ccccc2)=C(O)O1` (centres undefined) had an inhibition constant Ki of 0.033 µM. With `CCCC1(CCC)CC(=O)C(C(c2ccccc2)C2CCCC2)=C(O)O1` (centres undefined), the Ki is 0.039 µM.

`CCCC1(CCC)CC(O)=C(C(c2ccccc2)C2CC2)C(=O)O1` (centres undefined) gave a Ki of 0.015 µM. The same measure, in the same setting: for `CCCC1(CCC)CC(=O)C(C(CC)c2ccccc2)=C(O)O1` (centres undefined) the value was 0.022 µM. Consider `CCCCC1(Cc2ccccc2)CC(=O)C(C(CC)c2ccccc2)=C(O)O1` (centres undefined), for which the IC50 is 3 µM.

In the case of `CCC(C1=C(O)OC2(CCC(=O)CC2)CC1=O)c1ccccc1` (centres undefined), the 50% inhibitory concentration (IC50) was more than 1 µM. `CCC(C1=C(O)OC(Cc2ccccc2)(c2ccccc2)CC1=O)c1ccccc1` (centres undefined): the IC50 was more than 10 µM.
